Legend:
Assay type in all cases: cell-based, human
[1] = system: CD4 and CD8 T cells (healthy donor PBMCs); assay: IFNy and perforin cytokine production assay, with CD69 expression (flow cytometry); conditions: antagonist 12 µM; for IFNy production in CD8 T cells: n=6 healthy donors
Experimental: Similar experimental setup was performed as the extracellular ADO uptake assay. Cells were harvested after 2 days of CD3/CD28 bead stimulation before treatment with PMA/ionomycin (Sigma Aldrich) and golgi-inhibitors (BD biosciences). After 3 hours of subsequent incubation, intracellular staining was performed for IFNy and perforin (online supplemental table 1).
Figure 4 Rescue of lymphocyte proinflammatory cytokine production IFNy and perforin by A2BAR antagonism. (A,B) Inhibition of extracellular adenosine uptake via phosphorylated-AMP activated protein kinase (pAMPK) staining (n=7 healthy donors). Production of proinflammatory cytokines—(C,D) IFNy and (E) perforin in CD4 (n=5 healthy donors) and CD8 (n=6 healthy donors) T cells. Expression of CD69 adhesion molecule in (F). CD4 (n=7 healthy donors) and (G) CD8 (n=4 healthy donors) T cells. A2BAR antagonist 12 µM was added. Outlier is presented as diamond shape and defined by Tukey’s rule, which is not included in statistical analysis. Box plots with minimum, first quartile, median, third quartile, and maximum are presented. Normalized fold change is based on percent values compared with untreated controls. Unpaired and non-parametric statistical analysis—Mann-Whitney test was performed against untreated control with *p<0.05, **p<0.01, ***p<0.001, and ****p<0.0001.

[2] = system: healthy donor T cells (PBMCs) and NK cells; assay: CFSE proliferation assay with exogenous adenosine; conditions: exogenous adenosine 0.1 mM, antagonist 12 µM; for Rescue of lymphocyte (T and NK cell) proliferation: 3 days (T) and 6 days (NK); for Rescue of NK cell proliferation: 6 days
Experimental: Freshly isolated PBMCs and NK cells were stained with 5 µM FITC-conjugated carboxyfluorescein succinimidyl ester (CFSE, BioLegend) in phosphate-buffered saline (PBS) (Life Technologies) at room temperature for 5 min. CSFE stained cells were washed with flow cytometer buffer three times. CSFE-labeled healthy PBMCs and NK cells were cultured in 96-well plates with X-VIVO20% and 1% PS for 3 and 6 days, respectively. Healthy PBMCs were incubated with Human T-activator CD3/CD28 beads at 1:4 ratio (Thermo Fisher Scientific) and IL-2 (Novartis) at 100 IU/mL. Healthy donor NK cells were incubated with 1000 IU/mL IL-2 only. 2×10^5 PBMCs and 5×10^4 NK cells were counted for treatment with ADO (Sigma-Aldrich) and 12 μM of A2BAR antagonist at the same day.
Figure 3 Rescue of lymphocyte proliferation by of A2BAR antagonism. Relative proliferation of: (A) CD45RA- CD4 T cells, (B) CD45RA+ CD4 T cells, (C) CD45RA- CD8 T cells, (D) CD45RA+ CD8 T cells, and (E) NK cells, after incubation with exogenous adenosine 0.1 mM and A2BAR antagonist 12 µM for 3 (A–D) and 6 (E) days. (n=10 healthy donors) CD45RA expression differentiates naïve and effector T cells from central and effector memory T cells. Box plots with minimum, first quartile, median, third quartile, and maximum are presented. Unpaired and non-parametric statistical analysis—Mann-Whitney test was performed against untreated control with *p<0.05, **p<0.01, ***p<0.001, and ****p<0.0001. (F–J) Representative CFSE histogram on the corresponding lymphocyte subset. CFSE, carboxyfluorescein succinimidyl ester.

[3] = system: breast cancer patient-derived spheroid cultures; assay: Real-time imaging (IncuCyte) of breast cancer patient-derived spheroid growth; conditions: middle antagonist concentration (12 µM in figure 2), 6 days real-time imaging
Experimental: Brightfield and phase contrast images under 4X objective were acquired every 6 hours on IncuCyte S3 system (Essen BioScience). For breast cancer patient-derived spheroid culture, 1×10^4 cells per well were seeded with A2BAR antagonist at 12 µM treatment for 6 days real time imaging. For spheroid infiltration, after the addition of CSFE-labeled autologous expanded TILs and treatment with A2BAR antagonist at 12 µM, green fluorescence images were acquired for 3 days. All spheroid invasion analysis was performed using top hat segmentation with IncuCyte software.
Figure 2 Antitumor effect of A2BAR antagonists on breast cancer patient-derived spheroid cultures. (A) Relative cell viability to untreated antagonist control spheroid cultures (n=3, mean±SD) measured by Cell-Titer Glo assay. (B) Representative real time imaging of spheroid cultures over 6 days under 4X objective, with untreated (first column) or added 12 µM concentration respective of A2BAR antagonists indicated. Red mask demarcates area with cells surrounding the spheroid. Green line indicates estimated diameter of spheroid body. (C) Relative area of the representative spheroid growth (as shown in B) normalized to day 1. Statistical analysis—2-way (A) and 1-way (C) ANOVA with Dunnett’s multiple comparisons to untreated antagonist control was performed with *p<0.05, **p<0.01, ***p<0.001, and ****p<0.0001.

## CC1=C(C(=O)OC(C)C)C(c2ccco2)n2c(nc3ccccc32)N1 (stereo not shown) [ISAM-140, isopropyl 4-(furan-2-yl)−2-methyl-1,4-dihydrobenzo[4 5] imidazo[1,2 a]pyrimidine-3-carboxylate]
[1]; exogenous adenosine, n=5 healthy donors
  IFNy production in CD4 T cells: upregulated IFNy production
[1]; exogenous adenosine
  IFNy production in CD8 T cells: upregulated IFNy production
[2]
  Rescue of lymphocyte (T and NK cell) proliferation: improved immune cell proliferation
[2]; 3 days, n=10 healthy donors
  Rescue of proliferation of CD45RA+ (naïve and effector) CD8 T cells: rescued the proliferation
  Rescue of proliferation of CD45RA+ CD4 T cells: rescued the proliferation
  Rescue of proliferation of CD45RA- CD4 T cells (central and effector memory): rescued the proliferation
[2]; n=10 healthy donors
  Rescue of NK cell proliferation: rescued the proliferation
[3]
  Spheroid growth over time (relative area) vs untreated control: significantly affected the spheroid growth over time

## CC1=C(C(=O)OC(C)C)C(c2ccoc2)n2c(nc3cc(Cl)ccc32)N1 (stereo not shown) [ISAM-M89A]
[1]; n=4 healthy donors
  CD69 expression in CD8 T cells: positive effect
[1]; n=7 healthy donors
  CD69 expression in CD4 T cells: positive effect
[2]
  Rescue of lymphocyte (T and NK cell) proliferation: did not restore the proliferation
[3]
  Spheroid growth over time (relative area) vs untreated control: significantly affected the spheroid growth over time

## CC1=C(C(=O)OC(C)C)C(c2ccco2)n2c(nc3ccccc32)N1Cc1ccccc1F (stereo not shown) [ISAM-R56A]
[1]; exogenous adenosine
  IFNy production by T cells on adenosine suppression (subset not given): significantly improved
  Perforin production by CD8 T cells on adenosine suppression: significantly improved
  IFNy production in CD8 T cells: significantly rescued
[1]; exogenous adenosine, listed as ISAM–R56A
  Perforin production by CD8 T cells on adenosine suppression: significantly rescued
[2]; 3 days, n=10 healthy donors
  Rescue of proliferation of T cell subsets: did not restore the proliferation
[2]; n=10 healthy donors
  Rescue of NK cell proliferation: significantly rescued
[3]
  Spheroid growth over time (relative area) vs untreated control: significantly affected the spheroid growth over time

— PMC9115112, “A2B adenosine receptor antagonists rescue lymphocyte activity in adenosine-producing patient-derived cancer models” (Journal for Immunotherapy of Cancer, 2022)
